Assay: Generation of bioluminescence from luciferin borates upon treatment with hydrogen peroxide (luciferase light reaction)
Format: biochemical
Conditions: for light signal increase upon addition of hydrogen peroxide (in words): all pH values 6.87 to 9.18
Procedure: In this example, luciferin borates were incubated with hydrogen peroxide, and luciferin generation was measured using a light reaction catalyzed by luciferase. An increase in light output (bioluminescence) as a result of treatment of the luciferin borates with hydrogen peroxide indicates generation of luciferin as a result of the reaction with hydrogen peroxide.
1 M phosphate solutions (either 6.8 g of KH2PO4 (Fisher) or 11.4 g of K2HPO4 (Sigma) were dissolved in Nanopure water to 1 M) were diluted 1:5 with Nanopure water to produce 200 mM phosphate solutions. 200 mM phosphate buffers at pH 6.87, 7.41, 7.73, 8.04, and 9.18 were prepared. 4 mg/ml solutions of PBI 3048, 4013, 4424 and 4425 (FIG. 1) in DMSO (Fluka 41641) were made from solid powder.
Into two 96-well white, solid bottom luminometer plates (Promega Z3291) (labeled “A” and “B”), 50 μl of 200 mM phosphate buffer pH 6.87 was added to wells A1-H2; 50 μl of 200 mM phosphate pH 7.41 was added to wells A3-H4; 50 μl of 200 mM phosphate buffer pH 7.73 was added to wells A5-H6; 50 μl of 200 mM phosphate buffer pH 8.04 was added to wells A7-H8; and 50 μl of 200 mM phosphate buffer pH 9.18 was added to wells A9-H10.
50 μl of 4 mg/ml PBI 4013 in DMSO was diluted to 1.25 ml with Nanopure water, and 25 μl added to wells A1-D10 of plate A. 50 μl of 4 mg/ml PBI 4424 was diluted to 1.25 ml with Nanopure water, and 25 μl added to E1-H10 of plate A. 50 μl of 4 mg/ml PBI 3048 was diluted to 1.25 ml with Nanopure water, and 25 μl added to A1-D10 of plate B. 50 μl of 4 mg/ml PBI 4425 was diluted to 1.25 ml with Nanopure water, and 25 μl added to E1-H10 of plate B. 25 μl of Nanopure water was added to rows A and E of both plates. 17 μl of Nanopure water was added to rows B and F of both plates; and 8 μl of Nanopure water was added to rows C and G of both plates
A hydrogen peroxide solution (30% hydrogen peroxide, Sigma H1009-5 ml) was diluted to 60 μM hydrogen peroxide with Nanopure water, and 25 μl of the 60 μM hydrogen peroxide was added to rows D and H of both plates; 17 μl of […] hydrogen peroxide was added to rows C and G of both plates; and 8 μl of […] hydrogen peroxide was added to rows B and F of both plates. Both plates A and B were then gently mixed for 70 minutes.
A bottle of Reconstitution Buffer with Esterase (Promega V144B) was thawed and used to reconstitute a Luciferin Detection Reagent (Promega V859B) to create a reconstituted Luciferin Detection Reagent (“LDR”). 15 ml of 1 M HEPES buffer, pH 7.5 was mixed with 25 ml of the LDR, and 80 μl added to wells A1-H10 of two new luminometer plates (“R1” and “R2”).
Following incubation, 20 μl of the contents of wells A1-H10 of plate A was transferred to the same wells in plate R1, and 20 μl of A1-H10 of plate B was transferred to the same wells in plate R2. Plate R1 and R2 were then incubated at room temperature for 15 minutes, and bioluminescence was measured with a GloMax® luminometer (Promega Corp).
Bioluminescence from duplicate wells was averaged, and the average relative light units (RLUs) from samples containing peroxide were compared to those from the samples not containing peroxide incubated at the same pH (Table 1).

[1] = H2O2 0 μM, phosphate buffer pH 6.87, 70 minutes
[2] = H2O2 0 μM, phosphate buffer pH 7.41, 70 minutes
[3] = H2O2 0 μM, phosphate buffer pH 7.73, 70 minutes
[4] = H2O2 0 μM, phosphate buffer pH 8.04, 70 minutes
[5] = H2O2 0 μM, phosphate buffer pH 9.18, 70 minutes
[6] = H2O2 5 μM, phosphate buffer pH 6.87, 70 minutes
[7] = H2O2 5 μM, phosphate buffer pH 7.41, 70 minutes
[8] = H2O2 5 μM, phosphate buffer pH 7.73, 70 minutes
[9] = H2O2 5 μM, phosphate buffer pH 8.04, 70 minutes
[10] = H2O2 5 μM, phosphate buffer pH 9.18, 70 minutes
[11] = H2O2 10 μM, phosphate buffer pH 6.87, 70 minutes
[12] = H2O2 10 μM, phosphate buffer pH 7.41, 70 minutes
[13] = H2O2 10 μM, phosphate buffer pH 7.73, 70 minutes
[14] = H2O2 10 μM, phosphate buffer pH 8.04, 70 minutes
[15] = H2O2 10 μM, phosphate buffer pH 9.18, 70 minutes
[16] = H2O2 15 μM, phosphate buffer pH 6.87, 70 minutes
[17] = H2O2 15 μM, phosphate buffer pH 7.41, 70 minutes
[18] = H2O2 15 μM, phosphate buffer pH 7.73, 70 minutes
[19] = H2O2 15 μM, phosphate buffer pH 8.04, 70 minutes
[20] = H2O2 15 μM, phosphate buffer pH 9.18, 70 minutes

Which results are given for `O=C(O)C1CSC(c2nc3ccc(OCc4c(B(O)O)ccc5ccccc45)cc3s2)=N1` (stereo not drawn) [PBI 4424]?
average relative light units (bioluminescence) [1]: 17,522 RLU; average relative light units (bioluminescence) [2]: 16,181 RLU; average relative light units (bioluminescence) [3]: 17,087 RLU; average relative light units (bioluminescence) [4]: 18,602 RLU; average relative light units (bioluminescence) [5]: 17,794 RLU; average relative light units (bioluminescence) [6]: 18,952 RLU; average relative light units (bioluminescence) [7]: 17,583 RLU; average relative light units (bioluminescence) [8]: 18,681 RLU; average relative light units (bioluminescence) [9]: 20,935 RLU; average relative light units (bioluminescence) [10]: 22,309 RLU; average relative light units (bioluminescence) [11]: 19,891 RLU; average relative light units (bioluminescence) [12]: 17,508 RLU; average relative light units (bioluminescence) [13]: 19,298 RLU; average relative light units (bioluminescence) [14]: 20,554 RLU; average relative light units (bioluminescence) [15]: 20,333 RLU; average relative light units (bioluminescence) [16]: 20,263 RLU; average relative light units (bioluminescence) [17]: 19,332 RLU; average relative light units (bioluminescence) [18]: 25,729 RLU; average relative light units (bioluminescence) [19]: 21,486 RLU; average relative light units (bioluminescence) [20]: 20,453 RLU; light signal increase upon addition of hydrogen peroxide (in words): much smaller

Which results are given for `O=C(O)C1CSC(c2nc3ccc(OCc4ccc(B(O)O)c5ccccc45)cc3s2)=N1` (stereo not drawn) [PBI 4013]?
average relative light units (bioluminescence) [1]: 421,702 RLU; average relative light units (bioluminescence) [2]: 469,602 RLU; average relative light units (bioluminescence) [3]: 573,023 RLU; average relative light units (bioluminescence) [4]: 585,008 RLU; average relative light units (bioluminescence) [5]: 700,831 RLU; average relative light units (bioluminescence) [6]: 580,978 RLU; average relative light units (bioluminescence) [7]: 760,900 RLU; average relative light units (bioluminescence) [8]: 1,089,717 RLU; average relative light units (bioluminescence) [9]: 1,534,619 RLU; average relative light units (bioluminescence) [10]: 3,678,815 RLU; average relative light units (bioluminescence) [11]: 680,475 RLU; average relative light units (bioluminescence) [12]: 1,020,315 RLU; average relative light units (bioluminescence) [13]: 1,634,356 RLU; average relative light units (bioluminescence) [14]: 2,485,677 RLU; average relative light units (bioluminescence) [15]: 5,433,577 RLU; average relative light units (bioluminescence) [16]: 793,789 RLU; average relative light units (bioluminescence) [17]: 1,282,281 RLU; average relative light units (bioluminescence) [18]: 2,209,227 RLU; average relative light units (bioluminescence) [19]: 3,373,538 RLU; average relative light units (bioluminescence) [20]: 7,062,631 RLU; light signal increase upon addition of hydrogen peroxide (in words): increased strongly

With `CC(Oc1ccc2nc(C3=NC(C(=O)O)CS3)sc2c1)c1ccc(B(O)O)cc1` (stereo not drawn) [PBI 4425] as the molecule, how does the “average relative light units (bioluminescence)” value (from here on “average relative light units”) [1] read?
The value was 10,464 RLU.

And the “average relative light units” value [2]?
Its value is 10,266 RLU.

And the “average relative light units” value [3]?
Its value is 9,302 RLU.

What about the “average relative light units” value [4] of the same molecule?
The value was 10,312 RLU.

What about the “average relative light units” value [5] of the same molecule?
The value was 9,428 RLU.

And the “average relative light units” value [6]?
Its value is 13,296 RLU.

What about the “average relative light units” value [7] of the same molecule?
Its value is 14,549 RLU.

What about the “average relative light units” value [8] of the same molecule?
Its value is 13,739 RLU.

And the “average relative light units” value [9]?
Its value is 15,130 RLU.

And the “average relative light units” value [10]?
Its value is 19,728 RLU.

And the “average relative light units” value [11]?
The value was 14,491 RLU.

And the “average relative light units” value [12]?
The value was 14,768 RLU.

What about the “average relative light units” value [13] of the same molecule?
Its value is 17,086 RLU.

What about the “average relative light units” value [14] of the same molecule?
The value was 19,258 RLU.

And the “average relative light units” value [15]?
Its value is 26,859 RLU.

What about the “average relative light units” value [16] of the same molecule?
The value was 14,105 RLU.

And the “average relative light units” value [17]?
Its value is 14,725 RLU.

And the “average relative light units” value [18]?
Its value is 15,789 RLU.

And the “average relative light units” value [19]?
Its value is 18,905 RLU.

And the “average relative light units” value [20]?
Its value is 24,236 RLU.

What about the “light signal increase upon addition of hydrogen peroxide (in words)” value of the same molecule?
Its value is “much smaller”.

Source: patent US8937183B2, “Detection of hydrogen peroxide” (Promega Corporation, priority 2011, dated 2015)
